Laboratory results: BindingDB's records for doi:10.1021/jm201482p (University of Nebraska Medical Center, 2012)

Molecular target: Cholinesterase (Homo sapiens, UniProt P06276)
Experiment: Inhibition of human BChE after 30 mins by microplate reader method

Chain of Cholinesterase (P06276 whole entry): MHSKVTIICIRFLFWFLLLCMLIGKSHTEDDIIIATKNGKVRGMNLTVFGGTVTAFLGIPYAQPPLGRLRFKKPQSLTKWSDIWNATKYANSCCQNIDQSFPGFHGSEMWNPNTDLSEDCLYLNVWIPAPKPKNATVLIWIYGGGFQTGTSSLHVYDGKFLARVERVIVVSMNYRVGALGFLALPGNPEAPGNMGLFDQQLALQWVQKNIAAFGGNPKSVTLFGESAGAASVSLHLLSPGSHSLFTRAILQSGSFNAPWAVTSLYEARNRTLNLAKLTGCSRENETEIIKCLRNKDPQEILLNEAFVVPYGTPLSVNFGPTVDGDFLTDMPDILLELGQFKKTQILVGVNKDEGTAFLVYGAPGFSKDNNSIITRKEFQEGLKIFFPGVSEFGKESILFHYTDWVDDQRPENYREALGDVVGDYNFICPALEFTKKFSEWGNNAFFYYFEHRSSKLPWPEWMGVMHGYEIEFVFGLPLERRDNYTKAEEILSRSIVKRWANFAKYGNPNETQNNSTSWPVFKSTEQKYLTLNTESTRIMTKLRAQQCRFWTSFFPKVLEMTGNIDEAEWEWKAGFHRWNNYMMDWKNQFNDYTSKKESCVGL

SMILES: CC(C)(C)c1cc(C(C)(C)C)c2c(c1F)COP(=O)(OC[C@H]1O[C@@H](n3cc(I)c(=O)[nH]c3=O)C[C@@H]1O)O2 (stereo partly specified)
- IC50: > 60 mM
